Assay results from US10494363B2, “Non-steroidal glucocorticoid receptor modulators for local drug delivery” (LEO PHARMA A/S, priority 2015, dated 2019).

Experiments:
[1] = test system: TNF alpha release from human PBMCs; assay: Inhibition of TNF alpha release from human PBMCs; assay type: cell-based; details: PBMC, LPS 1 μg/ml, 18 hours, AlphaLISA
Method: PBMC were isolated from fresh buffy coats by density centrifugation using lymphoprep (Medinor AB, cat no 1019818) tubes. Isolated PBMCs were washed in assay medium (RPMI1640 with 25 mM HEPES, 1% pen/strep, 200 mM L glutamine and 10% Foetal calf serum). Surplus PBMCs were frozen in medium containing extra 10% foetal calf serum and 5% DMSO. On the assay day, fresh cells or cryopreserved cells after thawing were washed in serum free medium (RPMI1640 with 25 mM HEPES, 1% pen/strep, 200 mM L glutamine and 0.5% human serum albumin) and counted, in order to determine the fraction of living cells (generally >95%).
Test compounds were diluted in DMSO over seven orders of magnitude, further diluted in serum-free medium and distributed into wells of 384 well tissue culture plates. LPS was added to a final concentration of 1 μg/ml to the cells. Immediately thereafter titrated test compounds were added and incubated for 18 hours at 37° C.
The level of TNF-a in the culture supernatant was quantitated by AlphaLISA (Perkin Elmer). 2-(3,5-dichloro-4-pyridinyl)-1-(7-methoxyspiro[1,3-benzodioxole-2,1′-cyclopentan]-4-yl)-ethanone (CAS 185406-34-2) at 100×IC50 was used to define the assay window.
Data were processed by sigmoidal curve fitting. EC50 and Emax were determined from the curve fits.

[2] = biological target: T1, glucocorticoid receptor (GR), recombinant full-length receptor protein (Homo sapiens, UniProt P04150); assay: Glucocorticoid receptor binding assay (fluorescence polarization kit); details: 4 nM receptor, 2.5 nM Fluormone GS1 tracer, 2h room temperature, read-out: GR binding ABS IC50
T1 construct: 4 nM recombinant, full-length receptor protein was incubated with increasing concentrations of GR ligand; purchased Life Technologies A-15897
T1 sequence (P04150 1-777): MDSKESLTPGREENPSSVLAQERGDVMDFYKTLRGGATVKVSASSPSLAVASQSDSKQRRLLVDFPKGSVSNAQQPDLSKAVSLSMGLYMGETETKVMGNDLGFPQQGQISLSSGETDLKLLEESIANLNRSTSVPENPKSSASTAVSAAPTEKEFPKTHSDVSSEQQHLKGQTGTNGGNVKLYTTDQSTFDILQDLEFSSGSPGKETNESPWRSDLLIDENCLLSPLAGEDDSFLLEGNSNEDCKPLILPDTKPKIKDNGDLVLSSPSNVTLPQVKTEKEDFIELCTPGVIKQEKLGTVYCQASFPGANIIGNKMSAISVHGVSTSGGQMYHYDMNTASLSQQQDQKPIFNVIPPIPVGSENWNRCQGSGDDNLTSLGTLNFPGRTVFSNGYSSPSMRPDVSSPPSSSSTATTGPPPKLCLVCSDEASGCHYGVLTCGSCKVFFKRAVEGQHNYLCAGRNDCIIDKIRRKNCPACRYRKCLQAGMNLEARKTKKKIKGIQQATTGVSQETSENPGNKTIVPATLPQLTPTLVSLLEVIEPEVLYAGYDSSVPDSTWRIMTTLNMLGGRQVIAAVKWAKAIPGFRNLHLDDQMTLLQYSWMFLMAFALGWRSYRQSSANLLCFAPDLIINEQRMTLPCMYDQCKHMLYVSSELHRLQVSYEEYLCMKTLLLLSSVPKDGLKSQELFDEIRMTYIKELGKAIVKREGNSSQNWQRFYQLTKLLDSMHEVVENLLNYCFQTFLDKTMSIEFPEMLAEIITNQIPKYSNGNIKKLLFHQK
Method: Test compounds were diluted in DMSO over seven orders of magnitude, further diluted in assay buffer and distributed into 384-well plates. The sensitivity limit of this assay was 2-4 nM.
Data were processed by sigmoidal curve fitting.
Absolute (Abs) IC50 and Emax were determined from the curve fits.

| IC50 [2] [nM] | SMILES | EC50 [1] [nM] |
| --- | --- | --- |
| < 100 | C[C@H](NC(=O)C1CCCO1)[C@H](Oc1ccc(C(=O)O[C@H]2CCCN(C(=O)C3COC(=O)C3)C2)cc1)c1ccc(C2CC2)cc1 (stereo in doubt) [Compound 79, [(3S)-1-[(3R)-5-oxotetrahydrofuran-3-carbonyl]-3-piperidyl] 4-[(1R,2S)-1-(4-cyclopropylphenyl)-2-[[(2R)-tetrahydrofuran-2-carbonyl]amino]propoxy]benzoate] | < 100 |
| < 100 | C[C@H](NC(=O)CO)[C@H](Oc1ccc(C(=O)N[C@H]2CCCN(C(=O)[C@H]3COC(=O)C3)C2)nc1)c1ccc(C2CC2)cc1 [Compound 21, 5-[(1R,2S)-1-(4-cyclopropylphenyl)-2-[(2-hydroxyacetyl)amino]propoxy]-N-[(3S)-1-[(3R)-5-oxotetrahydrofuran-3-carbonyl]-3-piperidyl]pyridine-2-carboxamide] | < 100 |
| < 100 | C[C@H](NC(=O)c1cncs1)[C@H](Oc1ccc(C(=O)O[C@H]2CCCN(C(=O)[C@H]3COC(=O)C3)C2)cc1)c1ccc(C2CC2)cc1 [Compound 27, [(3S)-1-[(3R)-5-oxotetrahydrofuran-3-carbonyl]-3-piperidyl] 4-[(1R,2S)-1-(4-cyclopropylphenyl)-2-(thiazole-5-carbonylamino)propoxy]benzoate] | < 100 |
|  | Cc1ccc([C@@H](Oc2ccc(C(=O)N[C@@H]3CCCN(C(=O)[C@@H]4COC(=O)C4)C3)nc2)[C@H](C)NC(=O)C(F)(F)F)cc1 [Compound 60, N-[(3R)-1-[(3S)-5-oxotetrahydrofuran-3-carbonyl]-3-piperidyl]-5-[(1R,2S)-1-(p-tolyl)-2-[(2,2,2-trifluoroacetyl)amino]propoxy]pyridine-2-carboxamide] | < 100 |
|  | Cc1ccc([C@@H](Oc2ccc(C(=O)N[C@@H]3CCCN(C(=O)[C@@H]4CCC(=O)O4)C3)nc2)[C@H](C)NC(=O)C(F)(F)F)cc1 [Compound 61, N-[(3R)-1-[(2S)-5-oxotetrahydrofuran-2-carbonyl]-3-piperidyl]-5-[(1R,2S)-1-(p-tolyl)-2-[(2,2,2-trifluoroacetyl)amino]propoxy]pyridine-2-carboxamide] | 100 to 300 |
|  | Cc1ccc([C@@H](Oc2ccc(C(=O)N[C@@H]3CCCN(C(=O)[C@H]4CCC(=O)O4)C3)nc2)[C@H](C)NC(=O)C(F)(F)F)cc1 [Compound 62, N-[(3R)-1-[(2R)-5-oxotetrahydrofuran-2-carbonyl]-3-piperidyl]-5-[(1R,2S)-1-(p-tolyl)-2-[(2,2,2-trifluoroacetyl)amino]propoxy]pyridine-2-carboxamide] | < 100 |
|  | Cc1ccc([C@@H](Oc2ccc(C(=O)N[C@H]3CCCN(C(=O)[C@@H]4COC(=O)C4)C3)nc2)[C@H](C)NC(=O)C(F)(F)F)cc1 [Compound 63, N-[(3S)-1-[(3S)-5-oxotetrahydrofuran-3-carbonyl]-3-piperidyl]-5-[(1R,2S)-1-(p-tolyl)-2-[(2,2,2-trifluoroacetyl)amino]propoxy]pyridine-2-carboxamide] | < 100 |
|  | Cc1ccc([C@@H](Oc2ccc(C(=O)N[C@H]3CCCN(C(=O)[C@@H]4CCC(=O)O4)C3)nc2)[C@H](C)NC(=O)C(F)(F)F)cc1 [Compound 64, N-[(3S)-1-[(2S)-5-oxotetrahydrofuran-2-carbonyl]-3-piperidyl]-5-[(1R,2S)-1-(p-tolyl)-2-[(2,2,2-trifluoroacetyl)amino]propoxy]pyridine-2-carboxamide] | < 100 |
| 100 to 300 | Cc1ccc([C@@H](Oc2ccc(C(=O)N[C@@H]3CCN(C(=O)[C@H]4COC(=O)C4)C3)nc2)[C@H](C)NC(=O)C(F)(F)F)cc1 [Compound 65, N-[(3R)-1-[(3R)-5-oxotetrahydrofuran-3-carbonyl]pyrrolidin-3-yl]-5-[(1R,2S)-1-(p-tolyl)-2-[(2,2,2-trifluoroacetyl)amino]propoxy]pyridine-2-carboxamide] | < 100 |
| < 100 | C[C@H](NC(=O)C(F)(F)F)[C@H](Oc1ccc(C(=O)N[C@H]2CCCN(C(=O)[C@H]3COC(=O)C3)C2)nc1)c1ccc(Br)cc1 [Compound 67, 5-[(1R,2S)-1-(4-bromophenyl)-2-[(2,2,2-trifluoroacetyl)amino]propoxy]-N-[(3S)-1-[(3R)-5-oxotetrahydrofuran-3-carbonyl]-3-piperidyl]pyridine-2-carboxamide] | < 100 |
| < 100 | C[C@H](NC(=O)C(F)(F)F)[C@H](Oc1ccc(C(=O)N[C@H]2CCCN(C(=O)[C@H]3COC(=O)C3)C2)nc1)c1ccc(-c2ccccc2)cc1 [Compound 68, N-[(3S)-1-[(3R)-5-oxotetrahydrofuran-3-carbonyl]-3-piperidyl]-5-[(1R,2S)-1-(4-phenylphenyl)-2-[(2,2,2-trifluoroacetyl)amino]propoxy]pyridine-2-carboxamide] | < 100 |
| < 100 | Cc1ccc([C@@H](Oc2ccc(C(=O)N[C@H]3CCCN(C(=O)[C@H]4COC(=O)C4)C3)cc2)[C@H](C)NC(=O)C(F)(F)F)cc1 [Compound 69, N-[(3S)-1-[(3R)-5-oxotetrahydrofuran-3-carbonyl]-3-piperidyl]-4-[(1R,2S)-1-(p-tolyl)-2-[(2,2,2-trifluoroacetyl)amino]propoxy]benzamide] | < 100 |
|  | Cc1ccc([C@@H](Oc2ccc(C(=O)O[C@H]3CCCN(C(=O)[C@H]4COC(=O)C4)C3)cc2)[C@H](C)NC(=O)C(F)(F)F)cc1 [Compound 70, [(3S)-1-[(3R)-5-oxotetrahydrofuran-3-carbonyl]-3-piperidyl] 4-[(1R,2S)-1-(p-tolyl)-2-[(2,2,2-trifluoroacetyl)amino]propoxy]benzoate] | < 100 |
| < 100 | Cc1ccc([C@@H](Oc2ccc(C(=O)N[C@H]3CCCN(C(=O)N[C@@H]4COC(=O)C4)C3)nc2)[C@H](C)NC(=O)C(F)(F)F)cc1 [Compound 71, N-[(3S)-1-[[(3S)-5-oxotetrahydrofuran-3-yl]carbamoyl]-3-piperidyl]-5-[(1R,2S)-1-(p-tolyl)-2-[(2,2,2-trifluoroacetyl)amino]propoxy]pyridine-2-carboxamide] | < 100 |
| < 100 | Cc1ccc([C@@H](Oc2ccc(C(=O)N[C@H]3CCCN(C(=O)O[C@H]4CCOC4=O)C3)nc2)[C@H](C)NC(=O)C(F)(F)F)cc1 [Compound 73, [(3S)-2-oxotetrahydrofuran-3-yl] (3S)-3-[[5-[(1R,2S)-1-(p-tolyl)-2-[(2,2,2-trifluoroacetyl)amino]propoxy]pyridine-2-carbonyl]amino]piperidine-1-carboxylate] |  |
|  | Cc1ccc([C@H](Oc2ccc(C(=O)N[C@H]3CCCN(C(=O)[C@@H]4COC(=O)C4)C3)nc2)[C@H](C)NC(=O)C(F)(F)F)cc1 [Compound 80, N-[(3S)-1-[(3S)-5-oxotetrahydrofuran-3-carbonyl]-3-piperidyl]-5-[(1S,2S)-1-(p-tolyl)-2-[(2,2,2-trifluoroacetyl)amino]propoxy]pyridine-2-carboxamide] | < 100 |
|  | Cc1ccc([C@H](Oc2ccc(C(=O)N[C@H]3CCCN(C(=O)[C@H]4COC(=O)C4)C3)nc2)[C@H](C)NC(=O)C(F)(F)F)cc1 [Compound 81, N-[(3S)-1-[(3R)-5-oxotetrahydrofuran-3-carbonyl]-3-piperidyl]-5-[(1S,2S)-1-(p-tolyl)-2-[(2,2,2-trifluoroacetyl)amino]propoxy]pyridine-2-carboxamide] | < 100 |
|  | C[C@@H]1C[C@H]2[C@@H]3CCC4=CC(=O)C=C[C@]4(C)[C@@]3(F)[C@@H](O)C[C@]2(C)[C@@]1(O)C(=O)CO [Dexamethasone, reference compound] | < 100 |
